{"source": "ChEMBL document CHEMBL5614422", "about": "“Design, synthesis and biological evaluation of N-salicyloyl tryptamine derivatives as multifunctional neuroprotectants for the treatment of ischemic stroke” (Eur J Med Chem, 2024)", "key": {"HT-22 [1]": {"tested_on": "HT-22", "experiment": "Upregulation of GCLC protein level in OGD/R induced mouse HT-22 cells at 1 to 10 uM by Western blot analysis", "type": "functional, cell-based", "conditions": "dose 1-10 µM"}, "Mus musculus [2]": {"tested_on": "Mus musculus", "experiment": "In vivo activation of Nrf2 pathway in MCAO-R induced 12 hrs fasted male C57BL/6J mouse model assessed as increase in NQO1 expression level at 10 to 50 mg/kg, ip by Western blot analysis", "type": "functional, organism-based", "conditions": "dose 10-50 mg/kg"}, "HT-22 [3]": {"tested_on": "HT-22", "experiment": "Antioxidant activity against OGD/R induced oxidative stress in mouse HT-22 cells assessed as increase in SOD activity by absorbance based automatic microplate reader analysis", "type": "functional, cell-based"}, "HT-22 [4]": {"tested_on": "HT-22", "experiment": "Upregulation of HO-1 protein level in OGD/R induced mouse HT-22 cells at 10 uM in presence of ML385 by Western blot analysis", "type": "functional, cell-based"}, "Mus musculus [5]": {"tested_on": "Mus musculus", "experiment": "Neuroprotective activity against MCAO-R induced 12 hrs fasted male C57BL/6J mouse model assessed as alleviation of neurological impairment at 10 to 50 mg/kg, ip administered once a day for 7 days by H and E staining based analysis", "type": "functional, organism-based", "conditions": "dose 10-50 mg/kg, time 7.0 day"}, "Mus musculus [6]": {"tested_on": "Mus musculus", "experiment": "Neuroprotective activity against MCAO-R induced 12 hrs fasted male C57BL/6J mouse model assessed as decrease in MDA level in cerebral ischemic tissue at 10 to 50 mg/kg, ip administered once a day for 7 days", "type": "functional, organism-based", "conditions": "dose 10-50 mg/kg, time 7.0 day"}, "HT-22 [7]": {"tested_on": "HT-22", "experiment": "Induction of morphological changes in OGD/R induced mouse HT-22 cells assessed as attenuation of cell shrinkage by microscopic based analysis", "type": "functional"}, "Mus musculus [8]": {"species": "Mus musculus", "experiment": "Antiinflammatory activity in MCAO-R induced 12 hrs fasted male C57BL/6J mouse model assessed as reduction in IL-18 level by ELISA method", "type": "functional, organism-based"}, "Mus musculus [9]": {"tested_on": "Mus musculus", "experiment": "Neuroprotective activity against MCAO-R induced 12 hrs fasted male C57BL/6J mouse model assessed as improvement in neuronal mortality at 10 to 50 mg/kg, ip administered once a day for 7 days by H and E staining based analysis", "type": "functional, organism-based", "conditions": "dose 10-50 mg/kg, time 7.0 day"}, "HT-22 [10]": {"tested_on": "HT-22", "experiment": "Upregulation of NQO1 protein level in OGD/R induced mouse HT-22 cells at 1 to 10 uM by Western blot analysis", "type": "functional, cell-based", "conditions": "dose 1-10 µM"}, "Mus musculus [11]": {"tested_on": "Mus musculus", "experiment": "Neuroprotective activity against MCAO-R induced 12 hrs fasted male C57BL/6J mouse model assessed as improvement in brain tissue structure at 10 to 50 mg/kg, ip administered once a day for 7 days by H and E staining based analysis", "type": "functional, organism-based", "conditions": "dose 10-50 mg/kg, time 7.0 day"}, "Mus musculus [12]": {"tested_on": "Mus musculus", "experiment": "In vivo activation of Nrf2 pathway in MCAO-R induced 12 hrs fasted male C57BL/6J mouse model assessed as increase in HO-1 expression level at 10 to 50 mg/kg, ip by Western blot analysis", "type": "functional, organism-based", "conditions": "dose 10-50 mg/kg"}, "Mus musculus [13]": {"tested_on": "Mus musculus", "experiment": "Neuroprotective activity against MCAO-R induced 12 hrs fasted male C57BL/6J mouse model assessed as decrease in LDH level in cerebral ischemic tissue at 10 to 50 mg/kg, ip administered once a day for 7 days", "type": "functional, organism-based", "conditions": "dose 10-50 mg/kg, time 7.0 day"}, "[14]": {"biological_target": "T1, Nuclear factor erythroid 2-related factor 2 (Mus musculus) (UniProt Q60795)", "T1 sequence (whole entry)": "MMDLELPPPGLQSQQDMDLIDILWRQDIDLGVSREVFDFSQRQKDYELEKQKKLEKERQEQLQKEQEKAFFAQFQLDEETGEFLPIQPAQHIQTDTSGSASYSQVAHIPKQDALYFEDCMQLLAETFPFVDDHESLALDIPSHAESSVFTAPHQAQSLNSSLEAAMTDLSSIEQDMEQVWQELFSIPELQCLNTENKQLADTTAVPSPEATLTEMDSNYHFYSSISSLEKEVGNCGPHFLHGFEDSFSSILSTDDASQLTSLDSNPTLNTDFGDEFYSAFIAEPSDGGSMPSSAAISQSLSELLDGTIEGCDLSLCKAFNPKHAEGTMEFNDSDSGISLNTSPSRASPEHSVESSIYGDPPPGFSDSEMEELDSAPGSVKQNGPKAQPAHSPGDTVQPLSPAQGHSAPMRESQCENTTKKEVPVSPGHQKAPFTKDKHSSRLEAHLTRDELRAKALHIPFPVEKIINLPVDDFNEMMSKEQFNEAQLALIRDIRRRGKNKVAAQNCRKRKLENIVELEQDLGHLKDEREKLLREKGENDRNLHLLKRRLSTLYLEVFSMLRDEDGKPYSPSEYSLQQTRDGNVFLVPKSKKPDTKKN", "experiment": "Activation of Nrf2 in OGD/R induced mouse HT-22 cells assessed as induction of Nrf2 nuclear translocation at 1 to 10 uM by immunofluorescence analysis", "type": "cell-based", "conditions": "filed as activator, dose 1-10 µM"}, "HT-22 [15]": {"tested_on": "HT-22", "experiment": "Anti-ferroptotic activity against OGD/R induced mouse HT-22 cells increase in GSH level at 10 uM in presence of ML385", "type": "functional, cell-based"}, "Mus musculus [16]": {"tested_on": "Mus musculus", "experiment": "Neuroprotective activity against MCAO-R induced 12 hrs fasted male C57BL/6J mouse model assessed as reduction in infarct volume administered as ip once a day for 7 days by TTC staining based analysis", "type": "functional, organism-based", "conditions": "time 7.0 day"}, "HT-22 [17]": {"tested_on": "HT-22", "experiment": "Antioxidant activity against OGD/R induced oxidative stress in mouse HT-22 cells assessed as reduction in ROS release level at 1 to 10 uM by DCFH-DA staining based flow cytometry analysis", "type": "functional, cell-based", "conditions": "dose 1-10 µM"}, "HT-22 [18]": {"tested_on": "HT-22", "experiment": "Induction of morphological changes in OGD/R induced mouse HT-22 cells assessed as attenuation of cell rounding by microscopic based analysis", "type": "functional"}, "Mus musculus [19]": {"tested_on": "Mus musculus", "experiment": "Neuroprotective activity against MCAO-R induced 12 hrs fasted male C57BL/6J mouse model assessed as decrease in S100 expression in CA3 by measuring decrease in fluorescence intensity administered once a day as ip dose for 7 days by immunofluorescence method", "type": "functional, organism-based", "conditions": "dose 10-50 mg/kg, time 7.0 day"}, "Mus musculus [20]": {"tested_on": "Mus musculus", "experiment": "Neuroprotective activity against MCAO-R induced 12 hrs fasted male C57BL/6J mouse model assessed as decrease in S100 expression in cortex by measuring decrease in fluorescence intensity administered once a day as ip dose for 7 days by immunofluorescence method", "type": "functional, organism-based", "conditions": "dose 10-50 mg/kg, time 7.0 day"}, "HT-22 [21]": {"tested_on": "HT-22", "experiment": "Induction of morphological changes in OGD/R induced mouse HT-22 cells assessed as attenuation of synaptic shortening by microscopic based analysis", "type": "functional, cell-based"}}, "note": "Calls of active or inactive are those of the source. The calls are words filed in the database; no cut-off is given here.", "data": [{"smiles": "Cc1ccc(C(=O)NCCc2c[nH]c3ccc(N(C)C)cc23)c(O)c1", "values": [{"measurement": "Activity", "setting": "HT-22 [1]", "value": "Active"}, {"measurement": "Activity", "setting": "Mus musculus [2]", "value": "Active"}, {"measurement": "Activity", "setting": "HT-22 [3]", "value": "Active"}, {"measurement": "Activity", "setting": "HT-22 [4]", "value": "inactive"}, {"measurement": "Activity", "setting": "Mus musculus [5]", "value": "Active"}, {"measurement": "Activity", "setting": "Mus musculus [6]", "value": "Active"}, {"measurement": "Activity", "setting": "HT-22 [7]", "value": "Active"}, {"measurement": "Activity", "setting": "Mus musculus [8]", "value": "Active"}, {"measurement": "Activity", "setting": "Mus musculus [9]", "value": "Active"}, {"measurement": "Activity", "setting": "HT-22 [10]", "value": "Active"}, {"measurement": "Activity", "setting": "Mus musculus [11]", "value": "Active"}, {"measurement": "Activity", "setting": "Mus musculus [12]", "value": "Active"}, {"measurement": "Activity", "setting": "Mus musculus [13]", "value": "Active"}, {"measurement": "Activity", "setting": "[14]", "value": "Active"}, {"measurement": "Activity", "setting": "HT-22 [15]", "value": "inactive"}, {"measurement": "Activity", "setting": "Mus musculus [16]", "value": "Dose-Dependent Effect"}, {"measurement": "Activity", "setting": "HT-22 [17]", "value": "Active"}, {"measurement": "Activity", "setting": "HT-22 [18]", "value": "Active"}, {"measurement": "Activity", "setting": "Mus musculus [19]", "value": "Dose-Dependent Effect"}, {"measurement": "Activity", "setting": "Mus musculus [20]", "value": "Dose-Dependent Effect"}, {"measurement": "Activity", "setting": "HT-22 [21]", "value": "Active"}]}]}
